Measurements taken from patent US20200030242A1, “ORAL DOSAGE FORM WITH DRYING AGENT FOR DELIVERY OF ACTIVE AGENT” (Entrega Inc., priority 2016, published 2020).

Assay: Surgical Bioavailability Assay
Type: in vivo, porcine model
Conditions: neat active agent powder placed via surgical incision, compared to a control oral dosage form
Source text: “Surgical Bioavailability Assay” as used herein refers to an assay used to determine bioavailability of an active agent using a surgical testing method. In the Surgical Bioavailability Assay, a porcine model is also used, in which the animals undergo open surgery such that oral dosage forms to be tested can be placed at regions of the intestine of interest, such as the jejunum and ileum. After administration of anesthesia, a ventral midline incision is made to gain access to the animal's abdominal cavity. The jejunum and ileum are exposed, and incisions are made to manually place the oral dosage forms being tested. After oral dosage form placement is complete, the intestinal incisions are closed, and the midline incision can also be temporarily closed. Also, access can be made for blood collection via the carotid artery or jugular vein. […] The percent bioavailability of the active agent provided with the oral dosage form is determined on the basis of the active agent levels detected in these blood samples.
Surgical Bioavailability Assay. […] The percent bioavailability of the active agent provided with the oral dosage form is determined on the basis of the active agent levels detected in these blood samples.

Compound: C[C@@H](O)[C@@H]1NC(=O)[C@H](CCCCN)NC(=O)[C@@H](Cc2c[nH]c3ccccc23)NC(=O)[C@H](Cc2ccccc2)NC(=O)[C@@H](NC(=O)[C@H](N)Cc2ccccc2)CSSC[C@@H](C(=O)N[C@H](CO)[C@@H](C)O)NC1=O [octreotide]
- bioavailability (FIG. 4): good bioavailability

Compound: calcitonin
- bioavailability (FIG. 4): good bioavailability
